The test system of experiment [1] is Mus musculus. The experiment in a line: Analgesic activity in Balb/c albino Mus musculus (mouse) assessed as protection against acetic acid-induced writhing at 15 to 45 mg/kg measured up to 20 min relative to control. The class given is functional. The note with it: dose mg/kg 15-45.
The subject of experiment [2] is Mus musculus. Description: Anti-inflammatory activity in Balb/c albino Mus musculus (mouse) assessed as inhibition of carrageenan-induced paw edema at 50 to 150 mg/kg at 1 hr relative to control. The class given is functional, organism-based.
For experiment [3], the system named is Mus musculus. Description: Antipyretic activity in Balb/c albino Mus musculus (mouse) assessed as decrease in Brewer's yeast-induced rectal temperature at 50 to 150 mg/kg, ip measured up to 1.5 hr relative to control. It counts as functional, organism-based.
In experiment [4] the test system is Mus musculus. The experiment in a line: Anti-inflammatory activity in Balb/c albino Mus musculus (mouse) assessed as inhibition of carrageenan-induced paw edema at 50 to 150 mg/kg up to 5 hr relative to control. It counts as functional, organism-based.
Experiment [5] has as its system Mus musculus. The experiment in a line: Antinociceptive activity in Balb/c albino Mus musculus (mouse) assessed as latency time on hot plate at 15 to 45 mg/kg up to 60 min by hot-plate method relative to control. The class given is functional, organism-based.
For experiment [6], the system named is Mus musculus. Description: Anti-inflammatory activity in Balb/c albino Mus musculus (mouse) assessed as inhibition of carrageenan-induced paw edema at 50 to 150 mg/kg at 5 hr relative to control. It counts as functional, organism-based.
Experiment [7] concerns Mus musculus. Description: Antipyretic activity in Balb/c albino Mus musculus (mouse) assessed as Brewer's yeast-induced rectal temperature at 50 to 150 mg/kg, ip measured after 3 hr (reference value: 38.7 degC). The following applies: dose mg/kg 50-150; route intraperitoneal. The class given is functional.

Calls of active or inactive are those of the source. No cut-off for these calls is given here.

In the case of `Cl.NC(=O)C1CCN(Cc2ccccc2O)CC1`, the Activity with Mus musculus [1] stood at 67.34%. The inhibition result with Mus musculus [2], with Mus musculus [3], in the experiment on Mus musculus [4] and with Mus musculus [6] was “Active” throughout. The outcome in the experiment with Mus musculus [5] was inactive. The T with Mus musculus [7] came out at 37.2 °C.
Regarding `Cl.Oc1ccccc1CN1CCCCC1`, in the experiment on Mus musculus [1], the Activity is listed as 67.62%. The inhibition entry in the experiment with Mus musculus [2], in the experiment with Mus musculus [3] and in the experiment with Mus musculus [6] was “Active” each time. In the experiment on Mus musculus [5], the outcome was inactive. In addition, in the experiment on Mus musculus [7], the T worked out at 37.7 °C.
In the case of `CC(=O)Oc1ccccc1C(=O)O` [ASPIRIN], the Activity in the experiment with Mus musculus [1] was 78.38%.

The values above are taken from ChEMBL document CHEMBL3045956, “Bioisosteric synthesis of nitrogen containing derivatives of salicyl alcohol, their in vivo pharmacological studies with molecular modeling” (2013).
